This is an account of results in a melting point compilation (Tetko et al.; mined from patent text by program, amines drawn as free bases though some values may be those of a salt).

The structures appear in SMILES notation.

Compound `CN(C)c1ccc(C=C2C=C(C(C)(C)C)C(=O)C(C(C)(C)C)=C2)cc1` yielded a melting point of 175 °C. Compound `CC1=NN(CC(C)C)S(=O)(=O)c2sc(S(N)(=O)=O)cc21` returned a melting point of 140 to 142 °C.

In turn, `Ic1cnc2c(c1)N(Cc1ccccc1)CCN2` showed a melting point of 147 to 148 °C.

`Oc1ccc(-c2ncc3ncc(-c4ccc(C(F)(F)F)cc4)cc3n2)cc1` had a melting point of 203 to 204 °C. In the case of `CCOc1ccc(C2(C(=O)O)CCC2)cc1`, the melting point fell in the range of 90 to 91 °C. Next, `COc1nc(C)c2c(c1C#N)CCCC2`: 116 °C. Compound `COC(=O)Nc1ccc(OC)c(OC)c1` yielded a melting point of 83 to 87 °C. Next, `Cc1ccc(-c2cc(C(=O)O)nn2Cc2ccc(Cl)c(Cl)c2)cc1`: 172 °C; `CCCCCCCOc1c(OC)cc([N+](=O)[O-])c2nccc(C)c12`: 52 to 55 °C; `O=C1c2cc3nnn(Cc4cccnc4)c(=O)c3cc2OC2CCCN12` (stereo not given): 203 to 205 °C. Take `O=C(Cc1ccccn1)N1CCN(C(=O)Oc2ccc(Oc3ccc(C(F)(F)F)cn3)cc2)CC1`: the melting point lay within 143 to 146 °C. With `Nc1ccc2c(c1)C(=O)N(CCO)CCO2`, the melting point stood at 138 °C. Next, `COC(=O)NNC(C)=S`: 99 to 100 °C; `O=C(O)C1CCc2c([nH]c3ccc(Cl)cc23)C1` (stereo not given): 196 to 197 °C; `COc1ccc2c(c1)C(=S)N(C)CC(CCCl)O2` (stereo not given): 98 to 100 °C. In turn, `Clc1nc(Cl)nc(-c2ccccc2)n1` yielded a melting point of 118 to 120 °C.

In turn, `COc1cc(Nc2c(C#N)cnc3c2C=C2N=C(NCCN4CCOCC4)N=C2C3)cc(OC)c1OC` yielded a melting point of 175 to 178 °C. The compound `CCOC(=O)Cc1ccc(NC(=O)C(COc2cccc(Cl)c2)NS(=O)(=O)c2ccc(Cl)cc2)cc1` (racemic) had a melting point of 173 to 174 °C. Regarding `CSc1ncc(Cc2ccccn2)c(=O)[nH]1`, the melting point lay within 195 to 198 °C.

Take `COc1cccc([C@H]2O[C@H](CC(=O)Nc3ccc(CCC(=O)O)cc3)C(=O)N(CC(C)(C)COC(C)=O)c3ccc(Cl)cc32)c1OC`: the melting point lay within 144 to 146 °C. Next, `O=C(OCc1ccccn1)c1cccc(-n2cnc3cc(-c4ccccc4)ccc32)c1`: 149 to 150 °C. Next, `COC1=CC(=O)c2c(c(CO)cn2C)C1=O`: 182 to 184 °C; `O=C(Nc1n[nH]c(=S)s1)NC(Cc1ccccc1)C(=O)NCc1ccncc1` (stereo not given): 208 to 211 °C. For the compound `N#Cc1cccc(CSc2nnc(-c3ccc4nccn4c3)o2)c1`, the melting point was 175 to 176 °C. Next, `COc1cc(OC)cc(-c2nc[nH]c2-c2ccc(OC)c(N)c2O)c1`: 132 to 134 °C. Next, `O=c1c(-c2ccc(Cl)cc2)nc2ccccc2n1CC(F)F`: 133 to 136 °C. `NC(N)=NC(=O)Cn1c(Cl)c(Cl)c(Cl)c1Cl` registered a melting point of 215 to 217 °C. Next, `CC(C)NC(=O)c1c(OS(C)(=O)=O)cccc1C(=O)O`: 56 to 59 °C; `COc1cc(C(=O)COC(C)=O)ccc1OCCCCl`: 93 to 96 °C. As for `CCOC(=O)c1c(COC(C)=O)cccc1S(=O)(=O)NC(C)(C)C`, the melting point is 81 to 82 °C. Next, `O=c1nc(C2CC2)sc2ccccc12`: 120 °C. Regarding `COCc1nnc(-c2cccnc2)n1-c1c(Cl)c(Cl)cc2[nH]c(=O)c(=O)[nH]c12`, the melting point lay in the range of 222 to 224 °C.

As for `CC(C)(C)OC(=O)N1CCC(Oc2cccc3[nH]ncc23)C1` (stereo not given), the melting point is 196 to 198 °C. Next, `COC(=O)C1CN(C(=O)c2cc(OC)c(OC)c(OC)c2)CCN1C(=O)C1=Cc2cc(OC)c(OC)cc2CCC1` (stereo not given): 134 °C. Next, `CS(=O)c1ccc(C2=C(c3ccccc3)C(=O)C(C)(C)O2)cc1Cl` (stereo not given): 120 to 121 °C; `Cc1cccc2c1C=C(C(=O)O)C2C` (stereo not given): 190 to 193 °C. Consider `O=Cc1csc(N(c2ccccc2)c2ccccc2)n1`, for which the melting point was 160 to 161 °C. Next, `C=CCNC1=NS(=O)(=O)c2cc(Cl)cnc2N1`: 224 to 227 °C. Consider `O=C1O[C@H](C(Cl)(Cl)Cl)N2CCC[C@@]12Cc1ccccc1`, for which the melting point lay within 75 to 77 °C.

In turn, `Oc1ccc(-c2cnc(S)o2)cc1O` had a melting point of 215 to 218 °C. Next, `CC1CC(c2c[nH]c(-c3ccc(F)cc3)c2-c2ccncc2)CCN1` (stereo not given): 198 to 205 °C; `c1ccc(Sc2ccc[nH]2)cc1`: 86 to 87 °C. The compound `Cc1cc(C)c2cccc(OCc3c(Cl)ccc(S(=O)(=O)N4CCC[C@H]4C(=O)NCc4cccc(C(N)=S)c4)c3Cl)c2n1` came in with a melting point of 116 to 118 °C. Next, `NCC1Cc2cc(-c3ccccc3)cc(-c3ccc(F)cc3)c2O1` (stereo not given): above 250 °C; `O=c1c2cc3nnn(C4CC4)c(=O)c3cc2ncn1CCn1ncnn1`: 194 to 195 °C; `COC(=O)c1cc(OCCCCCCOc2ccc(-c3ccccc3)cc2)ccc1OCc1ccccc1`: 85 to 87 °C. Next, `COC(=O)c1c(C)[nH]c(C)c1C1=CC(=O)c2cccc(O)c2C1=O`: 98 to 99 °C; `O=C1CC[C@H](N2C(=O)c3cccc(CNC(=O)C4CC4)c3C2=O)C(=O)N1`: 219 to 221 °C. On to `O=C(NCCCc1ccncc1)N(CCC12CC3CC(CC(C3)C1)C2)CC1CC1`, for which the melting point is 123 to 125 °C.

In turn, `CN(CCNC(=O)NCCCOc1cccc(CN2CCCCC2)c1)CCC(c1ccc(Cl)cc1)c1ccccn1` (stereo not given) gave a melting point of 99 to 105 °C. Next, `CCN(C(=O)C(NS(=O)(=O)c1c(C)cc(C)cc1C)C(C)C)c1ccccc1` (stereo not given): 156 to 158 °C; `CC(C)S(=O)(=O)c1ccc2c(c1)nc(CC(C)(C)C)n2CCN1CCOCC1`: 151 °C; `O=C(c1ccccc1C(c1ccc(O)cc1)c1ccc(O)cc1)N(C1CCCCC1)C1CCCCC1`: above 300 °C. Compound `CCOC(=O)c1c(-c2ccccc2)c2cc(Cl)ccc2n(C)c1=O` showed a melting point of 124 to 125 °C. Next, `CCCc1nnc(/C=C/c2cn(Cc3ccccc3)nc2OCc2ccc(OCc3nc(-c4ccco4)oc3C)c(OC)c2)o1`: 146 to 147 °C. In the case of `O=C(CC1CC2CCC1C2)NCC1CCN(c2ncccn2)CC1` (stereo not given), the melting point was in the range of 121 to 126 °C. For the compound `CS(=O)(=O)NC1Cc2ccc(C3=NNC(=O)CC3)cc2C1` (stereo not given), the melting point lay within 218 to 220 °C.

For `COc1ccc(C(O)CN2CC=C(C3=NNC(=O)CS3)CC2)cc1` (stereo not given), the melting point fell in the range of 197 to 198 °C. Next, `COc1ccc(-c2cc[nH]c(=O)n2)cc1OC1CC2CCC1C2` (stereo not given): 220 °C. As for `CCOc1ccccc1CNc1nc(N)n2nc(-c3ccco3)nc2n1`, the melting point was in the range of 243 to 246 °C.

For the compound `COc1ccc2c(-c3ccccn3)noc2c1Cl`, the melting point lay in the range of 164 to 166 °C. Consider `CCCCCCCCCCCCOc1ccc(O)c(C(=O)NNC(=O)c2ccccc2O)c1`, for which the melting point is 244 °C. Take `O=C(CCCCN1CCOCC1)NNC(=O)N1Cc2ccccc2Oc2ccc(Cl)cc21`: the melting point is 107 to 114 °C. Next, `O=c1c2cccc(O)c2nc(-c2ccc(OCCN3CCCCC3)cc2)n1-c1ccc(O)cc1`: 153 to 155 °C. The compound `CCCc1cnc2c(NC(=O)c3c(Cl)cccc3Cl)cccc2c1NNC(C)=O` yielded a melting point of 223 to 226 °C. Compound `CN1CCC(CO)(OCc2ccccc2F)CC1` registered a melting point of 104 to 108 °C.

For the compound `CCC(=O)N1CCN(c2ccc(NC(=O)c3cc(=O)c4cc(F)cc(N5CCN(C)CC5)c4o3)cc2)CC1`, the melting point lay within 244 to 245 °C.

Turning to `COc1ccc(CCc2cc3cc(C#N)ccc3o2)c(C(=O)O)c1`, the melting point fell in the range of 179 to 182 °C.

In turn, `COCC1CCCN1Cc1ccc(-c2cc3ncnc(Nc4ccc5[nH]ccc5c4)c3s2)cc1` (stereo not given) registered a melting point of 161 to 177 °C. As to `CCSC(=O)c1nc(N)ccc1Oc1nc(OC)cc(OC)n1`, the melting point was 115 to 118 °C. Compound `CCOC(=O)c1cn(-c2csnn2)c2cc(F)c(F)cc2c1=O` returned a melting point of 198 to 203 °C. Next, `NS(=O)(=O)c1ccc(NN=Cc2ccc(Br)cc2)cc1`: 190 to 192 °C. For `COc1cc(C)c(C(=O)c2c(Cl)cnc(Cl)c2Cl)c(OC)c1OC`, the melting point is 60 to 61 °C. Turning to `CS(=O)(=O)C(=C1CN(C(c2ccc(Cl)cc2)c2ccc(Cl)cc2)C1)c1cc(F)cc(F)c1`, the melting point was 200 °C. In the case of `COC1=C(OC)C(=O)C(CCCCCCCCCCCCOC(C)=O)=C(C)C1=O`, the melting point was determined as 47 °C. The compound `Cc1oc(-c2ccccc2)nc1CCOc1ccc(C=C2SC(=O)NC2=O)cc1` displayed a melting point of 213 to 214 °C.

Regarding `CCC1Cc2ccc(C)cc2C1=O` (stereo not given), the melting point is 50 to 52 °C. For `Cc1cc(-n2cncn2)c2cccc(OCc3c(Cl)ccc(S(=O)(=O)N4CCC[C@H]4C(=O)N4CCN(c5ccccn5)CC4)c3Cl)c2n1`, the melting point worked out at 108 °C.

The compound `CCc1c(Cc2ccccc2)[nH]c(=O)[nH]c1=O` displayed a melting point of 73 to 74 °C. Take `COc1ccc(N2CCOCC2)cc1NC(=S)c1nc2ccc(C)nc2[nH]1`: the melting point was in the range of 189 to 191 °C.

In the case of `CC(C)NS(=O)(=O)c1ccc(S(N)(=O)=O)cc1`, the melting point is 166 to 168 °C.

Compound `CC(=O)OC[C@H]1CCn2c(c(C3=C(c4cn(C)c5ccccc45)C(=O)NC3=O)c3ccccc32)C1` showed a melting point of 238 to 241 °C. Next, `O=C(O)C1CSC(c2cccnc2)N1` (stereo not given): 135 to 140 °C; `CC(=O)Oc1ccc(-c2c(CBr)c3ccc(F)cc3oc2=O)c(OC(C)=O)c1`: 230 to 231 °C; `NC(=O)c1cc2c3ccccc3[nH]c(=O)n2n1`: 355 to 358 °C. Next, `CN1C(=S)Cc2ccccc21`: 108 to 109 °C; `Cc1cc(Nc2cncc(Nc3cccc(NC(=O)c4ccccc4)c3)n2)n[nH]1`: 243 to 244 °C. With `CCOc1ccc(Cl)cc1C(N)=O`, the melting point lay within 136 to 139 °C. Next, `O=C1c2ccccc2-c2c1c1ccccc1c(=O)n2CCCCCCCCCCCCn1c2c(c3ccccc3c1=O)C(=O)c1ccccc1-2`: 226 to 228 °C; `O=C(OCc1ccccc1)C1CCCc2[nH]c3ccccc3c21` (stereo not given): 108 to 112 °C.
